# Experimental data as given in the supplement of paper PMC10307832.
# Assays:
# Experiment in all cases: relative viability (nuclei count vs DMSO), 5 days (fraction); higher = more cells survive
# BEN = tested on: BEN
# Procedure, shortened: (§1)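 Medians of duplicate plates are given as relative viability. That measure is the nuclei count in treated wells divided by the count in vehicle wells. Counts were taken on 4× images of lung cancer cell lines in 1536-well plates, 5 days after pin-tool dosing the day after seeding with one drug alone or a fixed anchor-drug dose plus five library-drug doses (not always all listed) in √10 steps.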
# NCI-H520 = tested on: NCI-H520
# Procedure, shortened: as §1
# NCI-H2087 = tested on: NCI-H2087
# Procedure, shortened: as §1
# NCI-H1355 = tested on: NCI-H1355
# Procedure, shortened: as §1
# PC-14 = tested on: PC-14
# Procedure, shortened: as §1
# NCI-H1666 = tested on: NCI-H1666
# Procedure, shortened: as §1
# LXF-289 = tested on: LXF-289
# Procedure, shortened: as §1
# CAL-12T = tested on: CAL-12T
# Procedure, shortened: as §1
# NCI-H1993 = tested on: NCI-H1993
# Procedure, shortened: as §1
# NCI-H1651 = tested on: NCI-H1651
# Procedure, shortened: as §1
# LU99A = tested on: LU99A
# Procedure, shortened: as §1
# NCI-H2085 = tested on: NCI-H2085
# Procedure, shortened: as §1
# NCI-H2170 = tested on: NCI-H2170
# Procedure, shortened: as §1
# SK-MES-1 = tested on: SK-MES-1
# Procedure, shortened: as §1
# NCI-H1563 = tested on: NCI-H1563
# Procedure, shortened: as §1
# NCI-H1437 = tested on: NCI-H1437
# Procedure, shortened: as §1
# NCI-H460 = tested on: NCI-H460
# Procedure, shortened: as §1
# NCI-H1792 = tested on: NCI-H1792
# Procedure, shortened: as §1
# HCC-44 = tested on: HCC-44
# Procedure, shortened: as §1
# COR-L23 = tested on: COR-L23
# Procedure, shortened: as §1
# NCI-H1755 = tested on: NCI-H1755
# Procedure, shortened: as §1
smiles,measurement,setting,value
Cc1csc(=NC2CCCCC2)n1/N=C/c1ccc(O)c(O)c1O [MIM1] + Cc1nc(NC(=O)N2CCC[C@H]2C(N)=O)sc1-c1ccnc(C(C)(C)C(F)(F)F)c1 [Alpelisib] (partner 2 µM),relative viability,BEN; first compound 0.2 µM,1.13
same,relative viability,BEN; first compound 0.6325 µM,0.99
same,relative viability,BEN; first compound 2 µM,1.21
same,relative viability,BEN; first compound 6.325 µM,1.01
same,relative viability,BEN; first compound 20 µM,0.445
same,relative viability,NCI-H520; first compound 0.2 µM,0.902
same,relative viability,NCI-H520; first compound 0.6325 µM,0.9
same,relative viability,NCI-H520; first compound 2 µM,1.19
same,relative viability,NCI-H520; first compound 6.325 µM,0.633
same,relative viability,NCI-H520; first compound 20 µM,0.41
same,relative viability,NCI-H2087; first compound 0.2 µM,1.17
same,relative viability,NCI-H2087; first compound 0.6325 µM,1.2
same,relative viability,NCI-H2087; first compound 2 µM,1.06
same,relative viability,NCI-H2087; first compound 6.325 µM,0.886
same,relative viability,NCI-H2087; first compound 20 µM,0.706
same,relative viability,NCI-H1355; first compound 0.2 µM,0.89
same,relative viability,NCI-H1355; first compound 0.6325 µM,0.805
same,relative viability,NCI-H1355; first compound 2 µM,0.924
same,relative viability,NCI-H1355; first compound 6.325 µM,0.672
same,relative viability,NCI-H1355; first compound 20 µM,0.359
same,relative viability,PC-14; first compound 0.2 µM,0.886
same,relative viability,PC-14; first compound 0.6325 µM,0.92
same,relative viability,PC-14; first compound 2 µM,0.847
same,relative viability,PC-14; first compound 6.325 µM,0.878
same,relative viability,PC-14; first compound 20 µM,0.383
same,relative viability,NCI-H1666; first compound 0.2 µM,0.827
same,relative viability,NCI-H1666; first compound 0.6325 µM,0.877
same,relative viability,NCI-H1666; first compound 2 µM,0.815
same,relative viability,NCI-H1666; first compound 6.325 µM,0.659
same,relative viability,NCI-H1666; first compound 20 µM,0.405
same,relative viability,LXF-289; first compound 0.2 µM,1.07
same,relative viability,LXF-289; first compound 0.6325 µM,0.998
same,relative viability,LXF-289; first compound 2 µM,1.02
same,relative viability,LXF-289; first compound 6.325 µM,0.82
same,relative viability,LXF-289; first compound 20 µM,0.609
same,relative viability,CAL-12T; first compound 0.2 µM,1.14
same,relative viability,CAL-12T; first compound 0.6325 µM,1.36
same,relative viability,CAL-12T; first compound 2 µM,1.24
same,relative viability,CAL-12T; first compound 6.325 µM,0.997
same,relative viability,CAL-12T; first compound 20 µM,0.973
same,relative viability,NCI-H1993; first compound 0.2 µM,0.715
same,relative viability,NCI-H1993; first compound 0.6325 µM,0.619
same,relative viability,NCI-H1993; first compound 2 µM,0.758
same,relative viability,NCI-H1993; first compound 6.325 µM,0.724
same,relative viability,NCI-H1993; first compound 20 µM,0.55
same,relative viability,NCI-H1651; first compound 0.2 µM,0.927
same,relative viability,NCI-H1651; first compound 0.6325 µM,0.974
same,relative viability,NCI-H1651; first compound 2 µM,0.921
same,relative viability,NCI-H1651; first compound 6.325 µM,0.793
same,relative viability,NCI-H1651; first compound 20 µM,0.936
same,relative viability,LU99A; first compound 0.2 µM,0.488
same,relative viability,LU99A; first compound 0.6325 µM,0.495
same,relative viability,LU99A; first compound 2 µM,0.459
same,relative viability,LU99A; first compound 6.325 µM,0.487
same,relative viability,LU99A; first compound 20 µM,0.327
same,relative viability,NCI-H2085; first compound 0.2 µM,0.946
same,relative viability,NCI-H2085; first compound 0.6325 µM,1.02
same,relative viability,NCI-H2085; first compound 2 µM,0.984
same,relative viability,NCI-H2085; first compound 6.325 µM,0.84
same,relative viability,NCI-H2085; first compound 20 µM,0.882
same,relative viability,NCI-H2170; first compound 0.2 µM,0.769
same,relative viability,NCI-H2170; first compound 0.6325 µM,0.814
same,relative viability,NCI-H2170; first compound 2 µM,0.812
same,relative viability,NCI-H2170; first compound 6.325 µM,0.651
same,relative viability,NCI-H2170; first compound 20 µM,0.337
same,relative viability,SK-MES-1; first compound 0.2 µM,0.913
same,relative viability,SK-MES-1; first compound 0.6325 µM,0.774
same,relative viability,SK-MES-1; first compound 2 µM,0.813
same,relative viability,SK-MES-1; first compound 6.325 µM,0.8
same,relative viability,SK-MES-1; first compound 20 µM,0.725
same,relative viability,NCI-H1563; first compound 0.2 µM,0.95
same,relative viability,NCI-H1563; first compound 0.6325 µM,1.04
same,relative viability,NCI-H1563; first compound 2 µM,0.873
same,relative viability,NCI-H1563; first compound 6.325 µM,0.802
same,relative viability,NCI-H1563; first compound 20 µM,0.657
same,relative viability,NCI-H1437; first compound 0.2 µM,0.843
same,relative viability,NCI-H1437; first compound 0.6325 µM,0.935
same,relative viability,NCI-H1437; first compound 2 µM,0.959
same,relative viability,NCI-H1437; first compound 6.325 µM,0.592
same,relative viability,NCI-H1437; first compound 20 µM,0.289
same,relative viability,NCI-H460; first compound 0.2 µM,0.43
same,relative viability,NCI-H460; first compound 0.6325 µM,0.549
same,relative viability,NCI-H460; first compound 2 µM,0.456
same,relative viability,NCI-H460; first compound 6.325 µM,0.204
same,relative viability,NCI-H460; first compound 20 µM,0.0234
same,relative viability,NCI-H1792; first compound 0.2 µM,0.67
same,relative viability,NCI-H1792; first compound 0.6325 µM,0.654
same,relative viability,NCI-H1792; first compound 2 µM,0.694
same,relative viability,NCI-H1792; first compound 6.325 µM,0.433
same,relative viability,NCI-H1792; first compound 20 µM,0.599
same,relative viability,HCC-44; first compound 0.2 µM,0.835
same,relative viability,HCC-44; first compound 0.6325 µM,0.838
same,relative viability,HCC-44; first compound 2 µM,0.577
same,relative viability,HCC-44; first compound 6.325 µM,0.498
same,relative viability,HCC-44; first compound 20 µM,0.137
same,relative viability,COR-L23; first compound 0.2 µM,0.725
same,relative viability,COR-L23; first compound 0.6325 µM,0.809
same,relative viability,COR-L23; first compound 2 µM,0.537
same,relative viability,COR-L23; first compound 6.325 µM,0.558
same,relative viability,COR-L23; first compound 20 µM,0.457
same,relative viability,NCI-H1755; first compound 0.2 µM,0.93
same,relative viability,NCI-H1755; first compound 0.6325 µM,0.953
same,relative viability,NCI-H1755; first compound 2 µM,0.961
same,relative viability,NCI-H1755; first compound 6.325 µM,0.72
same,relative viability,NCI-H1755; first compound 20 µM,0.207
